Patent publication US11306078B2, “Piperidine CXCR7 receptor modulators” (IDORSIA PHARMACEUTICALS LTD., priority 2016, dated 2022)
pIC50: −log10 of the molar value.

Molecular target: human chemokine receptor CXCR7 (Homo sapiens (Human), UniProt P25106)
Assay: Tango CXCR7-bla U2OS beta-arrestin recruitment assay (beta-lactamase reporter, FRET), antagonism of CXCL12/SDF1-α;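 also: compounds preincubated 15 min before CXCL12 addition, then 22 h at 37 °C, FRET emission ratio read with CCF4-AM substrate after 2 h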
Assay type: cell-based
Details: antagonistic effect on CXCR7; Tango CXCR7-bla U2OS cells, CXCL12/SDF1-α at its EC80

Sequence of human chemokine receptor CXCR7 (P25106 whole entry): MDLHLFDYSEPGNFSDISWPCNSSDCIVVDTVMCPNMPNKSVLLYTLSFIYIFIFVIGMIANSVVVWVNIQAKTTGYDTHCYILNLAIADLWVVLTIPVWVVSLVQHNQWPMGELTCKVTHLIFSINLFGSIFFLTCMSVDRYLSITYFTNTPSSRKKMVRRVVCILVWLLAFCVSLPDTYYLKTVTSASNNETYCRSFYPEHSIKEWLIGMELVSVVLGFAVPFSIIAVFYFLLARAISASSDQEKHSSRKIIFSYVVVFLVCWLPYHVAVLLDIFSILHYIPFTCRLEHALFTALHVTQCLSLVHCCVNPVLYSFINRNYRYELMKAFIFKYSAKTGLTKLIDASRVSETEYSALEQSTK

SMILES | pIC50
C[C@@H]1CCC[C@H]1N1CC[C@@H](NC(=O)c2cc(-c3c(F)cc(F)cc3F)on2)[C@H](C(=O)N[C@H](C)c2cnccn2)C1 (relative stereo) [Example 1.132, (3R*,4R*)-1-((1RS,2RS)-2-Methyl-cyclopentyl)-4-{[5-(2,4,6-trifluoro-phenyl)-isoxazole-3-carbonyl]-amino}-piperidine-3-carboxylic acid ((R)-1-pyrazin-2-yl-ethyl)-amide] | 6.39
C[C@@H](NC(=O)[C@@H]1CN(C2CCCCC2)CC[C@H]1NC(=O)c1cc(-c2ccc(F)cc2F)no1)c1cnccn1 (relative stereo) [Example 1.133, (3R*,4R*)-1-Cyclohexyl-4-{[3-(2,4-difluoro-phenyl)-isoxazole-5-carbonyl]-amino}-piperidine-3-carboxylic acid ((R)-1-pyrazin-2-yl-ethyl)-amide] | 6.23
C[C@@H](NC(=O)[C@@H]1CN(C2CCCC2)CC[C@H]1NC(=O)c1cn(-c2ccc(F)cc2F)nn1)C1CCC1 (relative stereo) [Example 1.135, (3R*,4R*)-1-Cyclopentyl-4-{[1-(2,4-difluoro-phenyl)-1H-[1,2,3]triazole-4-carbonyl]-amino}-piperidine-3-carboxylic acid ((R)-1-cyclobutyl-ethyl)-amide] | 6.23
C[C@@H]1CCC[C@H]1N1CC[C@@H](NC(=O)c2cn(-c3ccc(F)cc3F)nn2)[C@H](C(=O)N[C@H](C)C2CCC2)C1 (relative stereo) [Example 1.137, (3R*,4R*)-4-{[1-(2,4-Difluoro-phenyl)-1H-[1,2,3]triazole-4-carbonyl]-amino}-1-((1RS,2RS)-2-Methyl-cyclopentyl)-piperidine-3-carboxylic acid ((R)-1-cyclobutyl-ethyl)-amide] | 6.04

Stronger by pIC50, values ahead:

pIC50 | SMILES
6.44 | C[C@@H](NC(=O)[C@@H]1CN(C2CCCCC2)CC[C@H]1NC(=O)c1cn(-c2ccc(F)cc2F)nn1)c1cnccn1 (relative stereo) [Example 1.127, (3R*,4R*)-1-Cyclohexyl-4-{[1-(2,4-difluoro-phenyl)-1H-[1,2,3]triazole-4-carbonyl]-amino}-piperidine-3-carboxylic acid ((R)-1-pyrazin-2-yl-ethyl)-amide]
6.58 | C[C@@H](NC(=O)[C@@H]1CN(C2CCCCC2)CC[C@H]1NC(=O)c1cn(-c2ccc(F)cc2F)nn1)C1CCC1 (relative stereo) [Example 1.134, (3R*,4R*)-1-Cyclohexyl-4-{[1-(2,4-difluoro-phenyl)-1H-[1,2,3]triazole-4-carbonyl]-amino}-piperidine-3-carboxylic acid ((R)-1-cyclobutyl-ethyl)-amide]
6.69 | C[C@@H](NC(=O)[C@@H]1CN(CC2CC2)CC[C@H]1NC(=O)c1cn(-c2ccc(F)cc2F)nn1)C1CCC1 (relative stereo) [Example 1.136, (3R*,4R*)-1-Cyclopropylmethyl-4-{[1-(2,4-difluoro-phenyl)-1H-[1,2,3]triazole-4-carbonyl]-amino}-piperidine-3-carboxylic acid ((R)-1-cyclobutyl-ethyl)-amide]
6.91 | C[C@@H](NC(=O)[C@@H]1CN(C2CCCC2)CC[C@H]1NC(=O)c1cn(-c2ccc(F)cc2F)nn1)c1cnccn1 (relative stereo) [Example 1.128, (3R*,4R*)-1-Cyclopentyl-4-{[1-(2,4-difluoro-phenyl)-1H-[1,2,3]triazole-4-carbonyl]-amino}-piperidine-3-carboxylic acid ((R)-1-pyrazin-2-yl-ethyl)-amide]
6.99 | C[C@@H](NC(=O)[C@@H]1CN(CC2CC2)CC[C@H]1NC(=O)c1cc(-c2c(F)cc(F)cc2F)on1)c1cnccn1 (relative stereo) [Example 1.131, (3R*,4R*)-1-Cyclopropylmethyl-4-{[5-(2,4,6-trifluoro-phenyl)-isoxazole-3-carbonyl]-amino}-piperidine-3-carboxylic acid ((R)-1-pyrazin-2-yl-ethyl)-amide]
